Experimental data: article PMC3155477, “Cinnamon extract inhibits α-glucosidase activity and dampens postprandial glucose excursion in diabetic rats” (Nutrition & Metabolism, 2011)
In brackets after ≈: the same amount, converted by molar mass.

Legend:
[1] = target: T1, rat-intestinal α-glucosidase (mammalian α-glucosidase); test: p-nitrophenol release from PNPG; type: biochemical; details: PNPG substrate (20 μl of 1 mM added), 50 mM phosphate pH 6.8, 37°C, 5 min pre-incubation, 30 min
T1 construct: gene Mgam; crude supernatant of sonicated rat-intestinal acetone powder (Sigma); native enzymes, not purified

[2] = tested on: T1, rat-intestinal α-glucosidase (mammalian α-glucosidase); test: Lineweaver-Burk plot, p-nitrophenol release; type: biochemical; details: no cinnamon extract; 0.5-4 mM PNPG, 37°C, 30 min
Description: Lineweaver-Burk plot, p-nitrophenol release on rat-intestinal α-glucosidase (mammalian α-glucosidase)

IC50 [1]	Km [2]	SMILES
34.11 µg/mL (≈ 52.8 µM)		C[C@H]1O[C@H](O[C@H]2[C@H](O)[C@@H](O)[C@@H](O[C@H]3[C@H](O)[C@@H](O)C(O)O[C@@H]3CO)O[C@@H]2CO)[C@H](O)[C@@H](O)[C@@H]1N[C@H]1C=C(CO)[C@@H](O)[C@H](O)[C@H]1O (some centres unmarked) [Acarbose]
	850 µM	O=[N+]([O-])c1ccc(O[C@H]2O[C@H](CO)[C@@H](O)[C@H](O)[C@H]2O)cc1 [p-Nitrophenyl-α-D-glucopyranoside]
